Reference: US9567380B1, “Microtubule organizing center (MTOC)-inactivating peptides” (THE RESEARCH FOUNDATION FOR THE STATE UNIVERSITY OF NEW YORK, priority 2015, dated 2017)
Entries after “also recorded” stand apart in the source; their conditions may differ. Ends that are not written are not given here.

Columns and labels:
human γ-TuRC = biological target: T1, human γ-TuRC (Homo sapiens, UniProt P23258+Q9BSJ2); test: In vitro γ-TuRC microtubule nucleation assay; type: biochemical; conditions: whole-cell extract from human breast cancer cells; final peptide concentration 60 nM
T1 construct: All other samples use whole-cell extract from human breast cancer cells; endogenous in cells; host or cells: human breast cancer cells (whole-cell extract)
T1 sequence (P23258 whole entry): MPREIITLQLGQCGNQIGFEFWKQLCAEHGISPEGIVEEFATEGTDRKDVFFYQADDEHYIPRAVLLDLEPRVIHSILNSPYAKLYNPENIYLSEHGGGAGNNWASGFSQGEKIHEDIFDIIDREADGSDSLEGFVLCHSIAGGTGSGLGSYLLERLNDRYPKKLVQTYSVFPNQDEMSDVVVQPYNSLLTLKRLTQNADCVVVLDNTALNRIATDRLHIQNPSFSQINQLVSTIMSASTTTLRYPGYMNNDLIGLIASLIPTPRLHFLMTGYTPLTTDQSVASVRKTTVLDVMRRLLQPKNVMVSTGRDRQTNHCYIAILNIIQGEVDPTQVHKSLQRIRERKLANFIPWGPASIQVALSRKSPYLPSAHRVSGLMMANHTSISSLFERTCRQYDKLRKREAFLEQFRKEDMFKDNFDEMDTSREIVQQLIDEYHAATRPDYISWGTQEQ
T1 sequence (Q9BSJ2 whole entry): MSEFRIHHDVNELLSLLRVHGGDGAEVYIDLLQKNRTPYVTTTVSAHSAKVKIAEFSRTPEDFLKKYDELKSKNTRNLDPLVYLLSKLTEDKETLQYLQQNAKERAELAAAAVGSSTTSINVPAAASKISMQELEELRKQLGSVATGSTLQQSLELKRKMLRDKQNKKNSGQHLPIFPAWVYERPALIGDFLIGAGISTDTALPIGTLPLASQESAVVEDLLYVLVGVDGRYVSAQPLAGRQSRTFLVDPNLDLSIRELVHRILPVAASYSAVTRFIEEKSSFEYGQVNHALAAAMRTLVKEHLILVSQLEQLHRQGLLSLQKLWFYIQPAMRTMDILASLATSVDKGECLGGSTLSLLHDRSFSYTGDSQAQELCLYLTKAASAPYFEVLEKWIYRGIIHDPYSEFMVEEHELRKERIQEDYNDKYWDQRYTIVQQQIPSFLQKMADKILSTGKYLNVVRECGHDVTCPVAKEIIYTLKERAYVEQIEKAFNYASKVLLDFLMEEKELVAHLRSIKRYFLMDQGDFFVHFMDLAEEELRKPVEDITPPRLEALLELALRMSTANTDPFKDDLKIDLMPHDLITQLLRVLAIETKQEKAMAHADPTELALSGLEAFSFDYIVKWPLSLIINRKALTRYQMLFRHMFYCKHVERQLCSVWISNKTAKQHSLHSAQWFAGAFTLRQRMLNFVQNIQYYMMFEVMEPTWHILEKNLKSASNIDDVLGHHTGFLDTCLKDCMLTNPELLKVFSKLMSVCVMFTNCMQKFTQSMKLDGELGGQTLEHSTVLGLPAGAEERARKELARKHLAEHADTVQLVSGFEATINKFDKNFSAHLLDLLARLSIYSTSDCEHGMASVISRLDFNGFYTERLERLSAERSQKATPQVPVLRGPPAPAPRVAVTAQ
Method: In vitro microtubule nucleation assays were performed in a total volume of 5 μL. That is, 3 μL for the sample and 2 μL of tubulin at a 1:5 ratio of Rhodamine:unlabeled tubulin (Cytoskeleton, Inc.). Total tubulin concentration was 3.75 μg/μL in 2.5× tubulin working buffer (2.5×BRB80: 200 mM PIPES, 2.5 mM MgCl2, 2.5 mM EGTA at pH 6.8 and 2.5 mM GTP). For whole cell extract nucleation analysis with peptide, 2 μL of whole cell extract was added with 1 μL of peptide at 300 nM for a final peptide concentration of 60 nM. This 3 μL combination was added first followed by tubulin working buffer. For samples with no peptide, the 5 μL final volume was comprised of 3 μL RIPA buffer and 2 μL of whole cell extract. The 5 μL reaction was combined on ice, quickly spun and returned to ice before incubating in a 37° C. water bath for 4 minutes. Sample incubation was staggered at 20 s intervals to allow for pipetting. After 4 minutes, 50 μL of 1% glutaraldehyde fixing solution was added and tubes were incubated at room temperature for 3 minutes. Samples were completed by addition of 1 mL 1×BRB80, inverting multiple times to mix. […] Images of multiple fields were collected and the average microtubule number per field was determined.

[1] = tested on: human MCF-7 breast cancer cells; test: Mitotic arrest after live cell peptide transfection (Chariot) of MCF-7 cells; type: cell-based
Method: (§1) MCF-7 and MDA-MB-231 (ATCC) cells were maintained in 25 cm^2 tissue culture treated Corning flasks (Sigma-Aldrich) in DMEM complete medium with Glutamax-1 and supplemented with 10% fetal bovine serum. MCF-7 DMEM complete medium was additionally supplemented with 0.01 mg/mL bovine insulin (Sigma-Aldrich). Flasks were maintained at 37° C. in 5% CO2, 95% air, and cells were passaged every 5-7 days using 1 mL TrypLE (Life Technologies).
(§2) For live cell peptide transfection we used the Chariot system (Active Motif) according to the manufacturer's instructions. Cells were seeded into 35 mm tissue culture-treated dishes containing coverslips and grown in complete medium to ˜60% confluency. 1 μg of Kinesin-14 Tail peptide PγTR (GenScript) was diluted in 100 μL 1×PBS on ice. 6 μL of 1/10 PBS-diluted Chariot reagent was further diluted into 100 μL sterile water on ice in a separate tube. Diluted peptide and diluted Chariot were combined and incubated at room temperature for 30 minutes to allow the Chariot-peptide complex to form. Following incubation, media was aspirated from cells, which were then washed once in 1×PBS. The entire 200 μL volume was added to cells in 400 μL serum-free media and gently rocked to ensure even delivery. Plates were returned to 37° C. for 1 hr. Next, DMEM complete growth medium was added to 2 mL without removing the peptide delivery solution (108 μM peptide in 2 mL). Cells were further incubated at 37° C. overnight and fixed after 24 hours.
Human cells were fixed on glass coverslips in −20° C. methanol for 10 minutes, washed with 1×PBS and permeabilized in 0.5% Triton X-100 for 20 minutes. Following further washes, cells were blocked for 30 minutes in 1% bovine serum albumin/knock out serum replacement (BSA/KOSR). For peptide localization to centrosomes, 1 μg/mL of peptide was applied after blocking and before primary antibody application. Antibodies used were primary mouse anti-γ-tubulin monoclonal (1:5,000; Sigma-Aldrich cat. T5326) or primary mouse anti-α-tubulin monoclonal DM1A (1:1,000; Santa Cruz Biotech cat. sc-32293), primary His-tag polyclonal antibody (1:1,000; Cell Signaling cat. 2365), secondary goat anti-mouse Alexa Fluor 488 IgG (1:1,000; Life Technologies cat. A-11001) and secondary goat anti-rabbit Texas Red (1:1,000; Life Technologies cat. T-6391). Antibodies were diluted in 1% BSA/KOSR antibody dilution buffer. […]
(§3) For statistical analysis of phenotypes, n values were chosen as number of cells per strain needed to ensure adequate power to detect significant outcomes. […] For cell cycle arrest by 1 μg transfection of PγTR, 12 fields at 200× were counted. […]

MDA-MB-231 cells = test: Mitotic arrest after live cell peptide transfection (Chariot) of MDA-MB-231 cells; type: cell-based, human
Method: as §1, §2
Human cells were fixed on glass coverslips in −20° C. methanol for 10 minutes, washed with 1×PBS and permeabilized in 0.5% Triton X-100 for 20 minutes. Following further washes, cells were blocked for 30 minutes in 1% bovine serum albumin/knock out serum replacement (BSA/KOSR). […]
as §3

[2] = biological target: human γ-TuRC (centrosome MTOC of human breast cancer cells) (human) (UniProt P23258); test: cell-based or functional assay
human γ-TuRC (centrosome MTOC of human breast cancer cells) (human), sequence (P23258 whole entry, chain 1 of 2): as the sequence (P23258 whole entry) above
human γ-TuRC (centrosome MTOC of human breast cancer cells) (human), sequence (Q9BSJ2 whole entry, chain 2 of 2, further chain): as the sequence (Q9BSJ2 whole entry) above

Row | Substance | block of γ-TuRC microtubule nucleation (in words) (human γ-TuRC) | mitotic arrest (in words) ([1]; MCF-7 (low aggressiveness), live cell transfection) | share of cells receiving peptide that were arrested in mitosis ([1]; MCF-7, 24 h, value in brackets in FIG. 13G legend) | cells arrested in mitosis ([1]; MCF-7, 24 h after transfection with 1 μg peptide, arrested peptide-positive cells as percentage of entire population, 12 fields at 200×) | spindle formation by α-tubulin staining ([1]; MCF-7 cells arrested by peptide, live cell transfection) | mitotic arrest (in words) (MDA-MB-231 cells; MDA-MB-231 (high aggressiveness), live cell transfection) | share of cells receiving peptide that were arrested in mitosis (MDA-MB-231 cells; MDA-MB-231, 24 h, value in brackets in FIG. 13G legend) | cells arrested in mitosis (MDA-MB-231 cells; MDA-MB-231, 24 h after transfection with 1 μg peptide, arrested peptide-positive cells as percentage of entire population, 12 fields at 200×) | cells arrested in mitosis 24 hours after transfection, MCF-7 [2] | cells arrested in mitosis 24 hours after transfection, MDA-MB-231 [2]
1 | YSKFKESAAPQLKDLIGSGAEKDHEYSLQLQ (also: 6-His tag, end not given here) [PγTR, Kinesin-14 Pkl1 Tail peptide, γ-TuRC targeting and regulatory; used 6-His tagged] | potent inhibitor of nucleation; also recorded: blocks the γ-TuRC MTOC nucleation | can mitotically arrest both the MCF-7 low and MDA-MB-231 high aggressive cell lines with similar efficiency | 90% | 39% | No spindle formation | can mitotically arrest both the MCF-7 low and MDA-MB-231 high aggressive cell lines with similar efficiency | 82% | 22.6% |  | 
2 | 6-His tagged Kinesin-14 Tail peptide PγTR (γ-TuRC targeting and regulatory peptide) |  |  |  |  |  |  |  |  | 39% | 22.6%
